#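 Interpolation was linear, between the two tested concentrations surrounding the appropriate level; five concentrations were tested over 48 hours in 96-well plates. TGI marks complete inhibition of growth.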
# Assays:
# Assay in all cases: growth of human tumour cells (NCI), 48 h
# [1] = tested on: SF-539 CNS
# [2] = tested on: MOLT-4 leukemia
# [3] = tested on: DLD-1 colon
# [4] = tested on: HOP-62 NSCLC
# [5] = tested on: SN12C renal
# [6] = tested on: LXFL 529 NSCLC
# [7] = tested on: DMS 273 small cell lung
# [8] = tested on: SK-MEL-2 melanoma
# [9] = tested on: NCI-H522 lung
# [10] = tested on: A498 renal
# [11] = tested on: SF-295 CNS
# [12] = tested on: IGROV1 ovarian
# [13] = tested on: SNB-19 CNS
# [14] = tested on: UO-31 renal
# [15] = tested on: KM20L2 colon
# [16] = tested on: K-562 leukemia
# [17] = tested on: ACHN renal
# [18] = tested on: EKVX NSCLC
# [19] = tested on: CCRF-CEM leukemia
# [20] = tested on: OVCAR-8 ovarian
# [21] = tested on: DMS 114 small cell lung
# [22] = tested on: OVCAR-3 ovarian
# [23] = tested on: NCI-H226 lung
# [24] = tested on: HT29 colon
# [25] = tested on: SK-MEL-28 melanoma
# [26] = tested on: NCI-H460 lung
# [27] = tested on: HCT-15 colon
# [28] = tested on: SK-OV-3 ovarian
# [29] = tested on: M14 melanoma
# [30] = tested on: LOX IMVI melanoma
# [31] = tested on: UACC-62 melanoma
# [32] = tested on: HOP-92 NSCLC
# [33] = tested on: SK-MEL-5 melanoma
# [34] = tested on: XF 498 CNS
# [35] = tested on: CAKI-1 renal
# [36] = tested on: SW-620 colon
# [37] = tested on: HL-60(TB) leukemia
# [38] = tested on: HCT-116 colon
# [39] = tested on: RPMI-8226 leukemia
# [40] = tested on: SNB-78 CNS
# [41] = tested on: HOP-18 NSCLC
# [42] = tested on: COLO 205 colon
# [43] = tested on: SF-268 CNS
# [44] = tested on: U251 CNS
# [45] = tested on: MALME-3M melanoma
# [46] = tested on: TK-10 renal
# [47] = tested on: SNB-75 CNS
# [48] = tested on: M19-MEL melanoma
# [49] = tested on: HCC-2998 colon
# [50] = tested on: A549 NSCLC
# [51] = tested on: NCI-H23 lung
# [52] = tested on: UACC-257 melanoma
# [53] = tested on: 786-0 renal
# [54] = tested on: RXF 393 renal
# [55] = tested on: OVCAR-5 ovarian
# [56] = tested on: KM12 colon
# [57] = tested on: OVCAR-4 ovarian
structure (smiles),measurement,setting,value
COc1ccc(/C(Cl)=C(\C=O)c2ccc(Cl)c(Cl)c2)cc1,TGI,[1],22.2 µM
same,TGI,[2],7.36 µM
same,TGI,[3],25.5 µM
same,TGI,[4],27.2 µM
same,TGI,[5],29.2 µM
same,TGI,[6],20.4 µM
same,TGI,[7],32.8 µM
same,TGI,[8],15.5 µM
same,TGI,[9],7.76 µM
same,TGI,[10],35.6 µM
same,TGI,[11],22 µM
same,TGI,[12],33.7 µM
same,TGI,[13],30.1 µM
same,TGI,[14],26.8 µM
same,TGI,[15],24 µM
same,TGI,[16],> 100 µM
same,TGI,[17],20 µM
same,TGI,[18],37.9 µM
same,TGI,[19],30.2 µM
same,TGI,[20],32.3 µM
same,TGI,[21],18 µM
same,TGI,[22],31.9 µM
same,TGI,[23],36.4 µM
same,TGI,[24],15.5 µM
same,TGI,[25],31 µM
same,TGI,[26],19 µM
same,TGI,[27],20.4 µM
same,TGI,[28],55 µM
same,TGI,[29],38 µM
same,TGI,[30],13.9 µM
same,TGI,[31],26.7 µM
same,TGI,[32],24.3 µM
same,TGI,[33],25.8 µM
same,TGI,[34],24.3 µM
same,TGI,[35],23 µM
same,TGI,[36],19.3 µM
same,TGI,[37],23.9 µM
same,TGI,[38],14.1 µM
same,TGI,[39],8.05 µM
same,TGI,[40],49 µM
same,TGI,[41],28.3 µM
same,TGI,[42],36.6 µM
same,TGI,[43],24.9 µM
same,TGI,[44],18.4 µM
same,TGI,[45],34.1 µM
same,TGI,[46],32.5 µM
same,TGI,[47],7.87 µM
same,TGI,[48],28.2 µM
O=C(Nc1nc2ncn(CCNCCn3cnc4nc(NC(=O)c5ccccc5)[nH]c(=O)c43)c2c(=O)[nH]1)c1ccccc1,TGI,[1],> 100 µM
same,TGI,[2],> 100 µM
same,TGI,[3],> 100 µM
same,TGI,[49],> 100 µM
same,TGI,[50],> 100 µM
same,TGI,[51],> 100 µM
same,TGI,[4],> 100 µM
same,TGI,[5],> 100 µM
same,TGI,[6],> 100 µM
same,TGI,[7],> 100 µM
same,TGI,[52],> 100 µM
same,TGI,[8],> 100 µM
same,TGI,[9],> 100 µM
same,TGI,[10],> 100 µM
same,TGI,[11],> 100 µM
same,TGI,[53],> 100 µM
same,TGI,[12],> 100 µM
same,TGI,[54],> 100 µM
same,TGI,[13],> 100 µM
same,TGI,[14],> 100 µM
same,TGI,[15],> 100 µM
same,TGI,[16],> 100 µM
same,TGI,[17],> 100 µM
same,TGI,[18],> 100 µM
same,TGI,[19],> 100 µM
same,TGI,[20],> 100 µM
same,TGI,[22],> 100 µM
same,TGI,[23],> 100 µM
same,TGI,[24],> 100 µM
same,TGI,[55],> 100 µM
same,TGI,[25],> 100 µM
same,TGI,[26],> 100 µM
same,TGI,[27],> 100 µM
same,TGI,[28],> 100 µM
same,TGI,[29],> 100 µM
same,TGI,[30],> 100 µM
same,TGI,[31],> 100 µM
same,TGI,[32],> 100 µM
same,TGI,[33],> 100 µM
same,TGI,[34],> 100 µM
same,TGI,[35],> 100 µM
same,TGI,[36],> 100 µM
same,TGI,[37],> 100 µM
same,TGI,[38],> 100 µM
same,TGI,[39],> 100 µM
same,TGI,[40],> 100 µM
same,TGI,[56],> 100 µM
same,TGI,[41],> 100 µM
same,TGI,[42],> 100 µM
same,TGI,[43],> 100 µM
same,TGI,[44],> 100 µM
same,TGI,[45],> 100 µM
same,TGI,[46],> 100 µM
same,TGI,[47],> 100 µM
same,TGI,[57],> 100 µM
same,TGI,[48],> 100 µM
CCCOP1(=O)C=CC(Cl)=C(C)C1 (configuration not stated),TGI,[1],> 68.2 µM
same,TGI,[2],22.2 µM
same,TGI,[3],47.9 µM
same,TGI,[49],> 100 µM
same,TGI,[50],> 100 µM
same,TGI,[51],> 100 µM
same,TGI,[4],> 100 µM
same,TGI,[5],> 100 µM
same,TGI,[6],> 61.1 µM
same,TGI,[52],64.3 µM
same,TGI,[8],> 89.5 µM
same,TGI,[9],31.6 µM
same,TGI,[10],> 100 µM
same,TGI,[11],> 100 µM
same,TGI,[53],76 µM
same,TGI,[12],> 100 µM
same,TGI,[54],33.4 µM
same,TGI,[13],> 100 µM
same,TGI,[14],> 100 µM
same,TGI,[15],> 100 µM
same,TGI,[16],> 31.6 µM
same,TGI,[17],> 66.5 µM
same,TGI,[18],> 88 µM
same,TGI,[19],19.7 µM
same,TGI,[20],47.5 µM
same,TGI,[21],89.3 µM
same,TGI,[22],> 75.2 µM
same,TGI,[24],> 100 µM
same,TGI,[55],> 100 µM
same,TGI,[25],42.8 µM
same,TGI,[26],> 100 µM
same,TGI,[27],39.7 µM
same,TGI,[28],> 100 µM
same,TGI,[29],> 61.3 µM
same,TGI,[30],> 100 µM
same,TGI,[31],52.2 µM
same,TGI,[32],> 100 µM
same,TGI,[33],> 100 µM
same,TGI,[34],> 93.1 µM
same,TGI,[35],> 95.9 µM
same,TGI,[36],42.2 µM
same,TGI,[38],33.5 µM
same,TGI,[39],60.1 µM
same,TGI,[40],> 100 µM
same,TGI,[56],50.4 µM
same,TGI,[41],> 100 µM
same,TGI,[42],33.9 µM
same,TGI,[43],> 100 µM
same,TGI,[44],> 100 µM
same,TGI,[45],52.1 µM
same,TGI,[46],> 100 µM
same,TGI,[47],> 100 µM
same,TGI,[57],> 100 µM
